Molecular target: T1, human ERβ (ERβ-LBD) (Homo sapiens, UniProt Q92731)
T1 construct: ERβ (ERβ-LBD, pET-N-AT #1, aa 255-530); biotinylation tag (in vivo biotinylated, pBirA co-expression); made in house; host or cells: E. coli BL21 (DE3) pBirA
Test: Binding assay 1: estrogen receptor binding assay (SPA, 3H-E2 displacement), ERβ
Conditions: displacement of 3H-E2, read-out: binding affinity to the estrogen receptor β-subtype, IC50
Procedure: Binding Assay 1: Estrogen Receptor Binding Assay
The estrogen receptor ligand binding assays are designed as scintillation proximity assays (SPA), employing the use of tritiated estradiol (^3H-E2) and recombinant expressed biotinylated estrogen receptor binding domains. The binding domains of human ERα (ERα-LBD, pET-N-AT #1, aa 301-595) and ERβ (ERβ-LBD, pET-N-AT #1, aa 255-530) proteins are produced in E. coli ((BL21, (DE3), pBirA)) at 22 C in 2×LB medium supplemented with 50 uM biotin. After 3 h of IPTG induction (0.55 mM), cells are harvested by centrifugation at 7300×g for 15 min and cell pellets stored frozen in −20C. Extraction of ERα and ERβ are performed using 5 g of cells suspended in 50 mL of extraction buffer (50 mM Tris, pH 8.0, 100 mM KCl, 4 mM EDTA, 4 mM DDT and 0.1 mM PMSF). The cell suspension is run twice through a Microfluidizer M-110L (Microfluidics) and centrifuged at 15,000×g for 60 min. The supernatant is aliquoted and stored in −70C.
Dilute ERαLBD or ERβ-LBD extracts in assay buffer (18 mM K2HPO4, 2 mM KH2PO4, 20 mM NasMoO4, 1 mM EDTA, 1 mM TCEP) 1:676 and 1:517 for alpha and beta respectively. The diluted receptor concentrations should be 900 fmol/L. Preincubate the extracts with streptavidin coated polyvinyltoluene SPA beads (RPNQ0007, GE Healthcare) at a concentration of 0.43 mg/mL for 1 hr at room temperature.
Test compounds are evaluated over a range of concentrations from 157 μM to 37.5 pM. The test compound stock solutions should be made in 100% DMSO at 5× of the final concentration desired for testing in the assay. The amount of DMSO in the test wells of the 384 well plate will be 20%. Add 18 μl aliquots of test compounds to the assay plates followed by 35 μl of the preincubated receptor/SPA bead mix and finally add 35 μl of 3 nM ^3H-E2. Cover the plates with a plastic sealer, centrifuge for 1 minute at 1000 rpm and equilibrate over night on a shaker at room temperature. The following morning, centrifuge the plates 5 minutes at 2000 rpm and measure on a plate scintillation counter e.g. a PerkinElmer Microbeta 1450 Trilux.
For compounds able to displace 3[H]-E2 from the receptor an IC50-value (the concentration required to inhibit 50% of the binding of 3[H]-E2) is determined by a non-linear four parameter logistic model; b=((bmax−bmin)/(1+(1/IC50)S))+bmin I is added concentration of binding inhibitor, IC50 is the concentration of inhibitor at half maximal binding and S is a slope factor. The Microbeta-instrument generates the mean cpm (counts per minute) value/minute and corrects for individual variations between the detectors thus generating corrected cpm values.

T1 sequence (Q92731 255-530): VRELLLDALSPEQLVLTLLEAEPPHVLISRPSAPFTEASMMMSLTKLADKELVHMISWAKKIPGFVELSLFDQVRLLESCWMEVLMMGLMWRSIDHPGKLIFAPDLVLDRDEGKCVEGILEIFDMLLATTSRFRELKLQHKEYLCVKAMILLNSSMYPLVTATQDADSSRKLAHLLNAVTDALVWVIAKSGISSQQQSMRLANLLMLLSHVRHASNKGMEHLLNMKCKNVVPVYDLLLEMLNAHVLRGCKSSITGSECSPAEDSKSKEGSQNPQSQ

| Compound | IC50 [µM] |
| --- | --- |
| Cc1noc(C)c1-c1c(-c2ccc(O)cc2)nn(C)c1C=NO (single isomer, unassigned) [Example 12, 4-(3,5-dimethylisoxazol-4-yl)-3-(4-hydroxyphenyl)-1-methyl-1H-pyrazole-5-carbaldehyde oxime] | 0.001 to 0.1 |
| Cc1noc(C)c1-c1c(C=NO)c(C(C)C)nn1-c1ccc(O)cc1 (single isomer, unassigned) [Example 18, 5-(3,5-dimethylisoxazol-4-yl)-1-(4-hydroxyphenyl)-3-isopropyl-1H-pyrazole-4-carbaldehyde oxime] | 0.001 to 0.1 |
| CCc1nn(-c2ccc(O)cc2F)c(-c2c(C)noc2C)c1C=NO (single isomer, unassigned) [Example 27, 5-(3,5-dimethylisoxazol-4-yl)-3-ethyl-1-(2-fluoro-4-hydroxyphenyl)-1H-pyrazole-4-carbaldehyde oxime] | 0.001 to 0.1 |
| Cn1nc(-c2ccc(O)cc2)c(-c2c(F)cccc2F)c1C=NO (single isomer, unassigned) [Example 44, 4-(2,6-difluorophenyl)-3-(4-hydroxyphenyl)-1-methyl-1H-pyrazole-5-carbaldehyde oxime] | 0.001 to 0.1 |
| Cn1nc(-c2ccc(O)cc2)c(-c2c(Cl)cccc2Cl)c1C=NO (single isomer, unassigned) [Example 45, 4-(2,6-dichlorophenyl)-3-(4-hydroxyphenyl)-1-methyl-1H-pyrazole-5-carbaldehyde oxime] | 0.001 to 0.1 |
| Cc1noc(C)c1-c1c(-c2ccc(O)cc2F)nn(C)c1C=NO (single isomer, unassigned) [Example 48, 4-(3,5-dimethylisoxazol-4-yl)-3-(2-fluoro-4-hydroxyphenyl)-1-methyl-1H-pyrazole-5-carbaldehyde oxime] | 0.001 to 0.1 |
| Cc1cc(O)ccc1-c1nn(C)c(/C=N/O)c1-c1c(C)noc1C (single isomer, unassigned) [Example 63, (E)-4-(3,5-dimethylisoxazol-4-yl)-3-(4-hydroxy-2-methylphenyl)-1-methyl-1H-pyrazole-5-carbaldehyde oxime] | 0.001 to 0.1 |

From patent US8653112B2, “Substituted pyrazoles as estrogen receptor ligands” (Karo Bio AB, priority 2009, dated 2014)
